Results taken from US20070059272A1 (priority 2005, published 2007).
Entries after “also recorded” stand apart in the source; their conditions may differ.

Experiments:
[1] = test system: PA-I promoter activity in reporter strain PA27853/PLL-EGFP
[2] = test system: PA-I mRNA in PA27853; assay: PA-I mRNA in PA27853 exposed to Caco-2 cells or cell fractions with and without GalNac; format: cell-based, Pseudomonas aeruginosa; settings: in the presence of GalNac
Method: Using Caco-2 intestinal epithelial cells, the issue of whether components of intestinal epithelial cells themselves played a role in triggering the expression of PA-I was addressed. Strain PA27853 was exposed to media (apical and basolateral) and Caco-2 cell fractions (cytosolic, nuclear, membrane) at various time intervals. PA-I mRNA was measured in PA27853 in response to the various Caco-2 cell media fractions in the presence and absence of GalNac, a sugar that binds specifically to PA-I and prevents P. aeruginosa adherence to Caco-2 cells. Media alone from Caco-2 cells grown in transwells (apical or basolateral) had no effect on PA-I expression. However, Caco-2 cell membrane fractions triggered the accumulation of a very high abundance of PA-I mRNA (>10 fold increase)-an effect that was attenuated in the presence of GalNac (FIG. 7A). These in vitro findings are in agreement with the above mouse studies showing that PA-I can be activated in response to contact with the intestinal epithelium, yet in the unstressed Caco-2 cell system, luminal contents (apical media) had no effect, similar to the control mice. […]

[3] = test system: intestinal epithelial cells; settings: cited from earlier work; for adhesion of P. aeruginosa to intestinal epithelial cells: 0.6% solution
[4] = test system: pyocyanin (PCN) production in P. aeruginosa PAO1; format: cell-based, Pseudomonas aeruginosa
[5] = molecular target: PA-I (Pseudomonas aeruginosa, UniProt Q05097); settings: cited from earlier work
Sequence of PA-I (Q05097 whole entry): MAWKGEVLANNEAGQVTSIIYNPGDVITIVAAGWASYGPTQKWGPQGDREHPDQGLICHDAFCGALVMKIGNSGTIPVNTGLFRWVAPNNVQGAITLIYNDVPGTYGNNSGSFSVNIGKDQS

[6] = test system: PA-I expression in P. aeruginosa; format: cell-based, Pseudomonas aeruginosa
[7] = test system: PA-IL in P. aeruginosa; settings: cited from earlier work
[8] = test system: membrane fractions of P. aeruginosa (PAO1); assay: ELISA binding to membrane fractions and solubilized membrane proteins of P. aeruginosa PAO1; parameters: species or system Pseudomonas aeruginosa; settings: human cytokines, ELISA
[9] = molecular target: membrane proteins of P. aeruginosa strain PAO1 (whole fixed cells, membrane fractions, solubilized membrane proteins)

Nc1ncnc2c1ncn2[C@@H]1O[C@H](COP(=O)(O)OP(=O)(O)O)[C@@H](O)[C@H]1O [ADP]
PA-I expression, nucleosides and nucleotides [1]: no evident inducing effects

Nc1ncnc2c1ncn2[C@@H]1O[C@H](COP(=O)(O)O)[C@@H](O)[C@H]1O [AMP]
PA-I expression, nucleosides and nucleotides [1]: no evident inducing effects

Nc1ncnc2c1ncn2[C@@H]1O[C@H](COP(=O)(O)OP(=O)(O)OP(=O)(O)O)[C@@H](O)[C@H]1O [ATP]
PA-I expression, nucleosides and nucleotides [1]: no evident inducing effects

C[C@@H](O)C(=O)O [D-lactate]
PA-I promoter activity, candidate compounds in HDMEM [1]: no effect

CC(=O)N[C@H]1C(O)O[C@H](CO)[C@H](O)[C@@H]1O (stereo partly drawn) [GalNAc, N-acetyl-D-galactosamine]
PA-I mRNA increase in PA27853 densely adhered to Caco-2 cells [2]: nearly completely abolished | PA-I mRNA increase triggered by Caco-2 cell membrane fractions [2]: attenuated | adhesion of P. aeruginosa to intestinal epithelial cells [3]: markedly decreased adhesion | barrier function of intestinal epithelial cells [3]: do not alter their barrier function

C[C@H](O)C(=O)O [L-lactate]
PA-I promoter activity, candidate compounds in HDMEM [1]: no effect

COC(=O)c1ccccc1N [MA, methyl anthranilate]
effect on ability of U-50,488 to enhance PCN production [4]: inhibited the ability of U-50,488 to enhance PCN production

Nc1ncnc2c1ncn2[C@@H]1O[C@H](CO)[C@@H](O)[C@H]1O [adenosine]
PA-I expression, nucleosides and nucleotides [1]: both dose- and time-dependent | PA-I promoter activity, candidate compounds in HDMEM [1]: enhanced fluorescence

OC[C@H]1O[C@@H](n2cnc3c(O)ncnc32)[C@H](O)[C@@H]1O [inosine]
inosine concentration inducing PA-I expression, fold less than adenosine of equivalent effect [1]: 10 fold | onset of PA-I expression compared with adenosine [1]: earlier time point | size of effect on PA-I expression compared with adenosine [1]: greater

OC[C@H]1O[C@H](OCC2O[C@@H](O)[C@H](O)[C@@H](O)[C@@H]2O)[C@H](O)[C@@H](O)[C@H]1O (some centres unmarked) [mellibiose]
adhesion of P. aeruginosa to intestinal epithelial cells [3]: markedly decreased adhesion | barrier function of intestinal epithelial cells [3]: do not alter their barrier function | binding affinity to PA-I [5]: highest binding affinity to date

Oc1ccc2c3c1O[C@H]1c4[nH]c5c(c4C[C@@]4(O)[C@@H](C2)N(CC2CC2)CC[C@]314)C[C@@]1(O)[C@H]2Cc3ccc(O)c4c3[C@@]1(CCN2CC1CC1)[C@H]5O4 [norbinaltorphimine, nor-binaltorphimine]
dose that completely inhibits enhanced PCN production [4]: 200 µM | effect on U-50,488-enhanced PCN production [4]: attenuates enhanced PCN production

NC[C@H](O)c1ccc(O)c(O)c1 [norepinephrine]
PA-I expression, in vitro studies [6]: did not change PA-I expression; also recorded: not affected | effect on QS-dependent virulence factor PA-IL [7]: can also affect

EGF: human cytokine tested for membrane binding
binding to P. aeruginosa cell membranes [8]: No binding

IL-4: human cytokine
binding to P. aeruginosa cell membranes [8]: No binding

IL-10: human cytokine
binding to P. aeruginosa cell membranes [8]: No binding

TGF-β
binding to P. aeruginosa cell membranes [8]: No binding

dynorphin
PCN production (OD520 nm) [4]: enhanced PCN production in a dose-dependent manner

recombinant human Interferon gamma (IFN-γ) (from UniProt P01579 24-166) (ligand)
percent of bacterial cells that bound IFN-γ [9]: 73%

B1: adenosine deaminase: enzyme added to deplete the media of adenosine (protein, UniProt P00813 2-363, looked up)
Adenosine deaminase: AQTPAFDKPKVELHVHLDGSIKPETILYYGRRRGIALPANTAEGLLNVIGMDKPLTLPDFLAKFDYYMPAIAGCREAIKRIAYEFVEMKAKEGVVYVEVRYSPHLLANSKVEPIPWNQAEGDLTPDEVVALVGQGLQEGERDFGVKARSILCCMRHQPNWSPKVVELCKKYQQQTVVAIDLAGDETIPGSSLLPGHVQAYQEAVKSGIHRTVHAGEVGSAEVVKEAVDILKTERLGHGYHTLEDQALYNRLRQENMHFEICPWSSYLTGAWKPDTEHAVIRLKNDQANYSLNTDDPLIFKSTLDTDYQMTKRDMGFTEEEFKRLNINAAKSSFLPEDEKRELLDLLYKAYGMPPSASAGQNL
PA-I expression after depleting adenosine from media of HIF-1-a-activated Caco-2 cells ([1]; Caco-2): even greater increase in PA-I expression
